Converted amounts (≈) assume the structure as drawn. The source made the active and inactive calls. The calls are words filed in the database; no cut-off is given here.
Columns and labels:
[1] = tested on: Candida albicans; assay: Antibiofilm activity against FLC-resistant Candida albicans 0304103 assessed as inhibition of biofilm formation at 64 ug/mL incubated for 24 hrs by XTT reduction assay; format: functional, organism-based; details: dose 64.0 µg/ml
[2] = tested on: Cryptococcus neoformans; assay: Antifungal activity against Cryptococcus neoformans 011405 assessed as microbial growth inhibition; format: functional
[3] = tested on: [Candida] auris; assay: Synergetic antifungal activity against Candida auris 0029 assessed as microbial growth inhibition incubated for 24 hrs in the presence of (S)-4-((2-(6-(4-Chlorophenyl)-1-methyl-7,8,9,10-tetrahydro-4H-benzo-(4,5)thieno[3,2-f][1,2,4]triazolo(4,3-a)(1,4)diazepin-4-yl)-acetamido)-methyl)-N-hydroxybenzamide by checkerboard microdilution method; format: functional; details: Candidozyma auris
[4] = tested on: Candida albicans; assay: Synergetic antifungal activity against Candida albicans 0304103 assessed as microbial growth inhibition incubated for 24 hrs in the presence of (S, E)-N-Hydroxy-3-(4-(2-(1-methyl-6-(p-tolyl)-4H-benzo(f)-(1,2,4)triazolo(4,3-a)[1,4]diazepin-4-y)acetamido)phenyl)-acrylamide by checkerboard microdilution method; format: functional
[5] = tested on: Candida albicans; assay: Downregulation of GCA1 expression in Candida albicans 0304103 at 32 ug/mL incubated for 24 hrs by RT q-PCR analysis; format: functional; details: dose 32.0 µg/ml
[6] = tested on: Candida albicans; assay: Antifungal activity against Candida albicans 0304103 assessed as reduction in yeast to hypha transition at 32 ug/mL incubated for 2 hrs by inverse fluorescence microscopy; format: functional, organism-based; details: dose 32.0 µg/ml
[7] = tested on: Candida albicans; assay: Synergetic antifungal activity against Candida albicans 0304103 assessed as microbial growth inhibition incubated for 24 hrs in the presence of (S)-N-Hydroxy-4-((2-(1-methyl-6-(p-toly1)-4H-benzo[f](1,2,4)-triazolo-(4,3-a][1,4]diazepin-4-y1)acetamido)methyl)benzamide by checkerboard microdilution method; format: functional
[8] = tested on: Candida albicans; assay: Synergetic antifungal activity against Candida albicans 0304103 assessed as microbial growth inhibition incubated for 24 hrs in the presence of (S,E)-3-(4-(2-(8-Chloro-6-(2-chlorophenyl)-1-methyl-4H-benzo-[f][1,2,4]triazolo[4,3-a](1,4)diazepin-4-yl)acetamido)pheny1)-N-hydroxy-acrylamide by checkerboard microdilution method; format: functional
[9] = tested on: Nakaseomyces glabratus; assay: Antifungal activity against Candida glabrata 4408 assessed as microbial growth inhibition; format: functional
[10] = tested on: Candida albicans; assay: Downregulation of MDR1 expression in Candida albicans 0304103 at 32 ug/mL incubated for 24 hrs by RT q-PCR analysis; format: functional; details: dose 32.0 µg/ml
[11] = tested on: Candida albicans; assay: Antifungal activity against Candida albicans 9172 assessed as microbial growth inhibition; format: functional
[12] = tested on: Candida albicans; assay: Synergetic antifungal activity against Candida albicans 0304103 assessed as microbial growth inhibition incubated for 24 hrs in the presence of (S)-4-(2-(6-(4-Chloropheny1)-1-methy1-4H-benzo(f)(1,2,4)-triazolo(4,3-a)[1,4]diazepin-4-yl)acetamido)methyl)-N-hydroxybenzamide by checkerboard microdilution method; format: functional
[13] = tested on: Candida albicans; assay: Antifungal activity against Candida albicans 9884 assessed as microbial growth inhibition; format: functional
[14] = tested on: [Candida] auris; assay: Antifungal activity against Candida auris 0030 assessed as microbial growth inhibition; format: functional; details: Candidozyma auris
[15] = tested on: Candida albicans; assay: Synergetic antifungal activity against Candida albicans 0304103 assessed as microbial growth inhibition incubated for 24 hrs in the presence of (S)-N-Hydroxy-4-(2-(1-methyl-6-phenyl-4H-benzo[f](1,2,4)-triazolo-[4,3-a],[1,4]diazepin-4-yl)acetamido)benzamide by checkerboard microdilution method; format: functional
[16] = tested on: Candida albicans; assay: Synergetic antifungal activity against Candida albicans 0304103 assessed as microbial growth inhibition incubated for 24 hrs in the presence of (S)-4-(2-(6-(4-Chlorophenyl)-1-methyl-7,8,9,10-tetrahydro-4Hbenzo-[4,5]thieno(3,2-f)(1,2,4)triazolo(4,3-a)[1,4]diazepin-4-yl)-acetamido)-N-hydroxybenzamide by checkerboard microdilution method; format: functional
[17] = tested on: Candida albicans; assay: Synergetic antifungal activity against Candida albicans 0304103 assessed as microbial growth inhibition incubated for 24 hrs in the presence of (S)-N-Hydroxy-2-(4-(2-(l-methyl-6-phenyl-4H-benzo[f](1,2,4)-triazolo-[4,3-a][1,4]diazepin 4-yl)acetamido)phenyl)acetamide by checkerboard microdilution method; format: functional
[18] = tested on: Candida albicans; assay: Synergetic antifungal activity against Candida albicans 0304103 assessed as microbial growth inhibition incubated for 24 hrs in the presence of (S)-N-Hydroxy-4-((2(1-methyl-6-phenyl-4H-benzor[f](1,2,4)-triazolo-[4,3-a][1,4]diazepin 4-yl)acetamido)methyl)benzamide by checkerboard microdilution method; format: functional
[19] = tested on: Candida albicans; assay: Synergetic antifungal activity against Candida albicans 0304103 assessed as microbial growth inhibition incubated for 24 hrs in the presence of (S)-2-(6-(4-Chlorophenyl)-1-methyl-4H-benzo[f][1,2,4]triazolo-14,3-a)(1,4)diazepin-4-yl)-N-(4-(2-(hydroxyamino)-2-oxoethyl)-phenyl)acetamide by checkerboard microdilution method; format: functional
[20] = tested on: Candida albicans; assay: Synergetic antifungal activity against Candida albicans 0304103 assessed as microbial growth inhibition incubated for 24 hrs in the presence of (S)-N-Hydroxy-4-(2-(1-methyl-6-(p-toly1)-4H-benzo[f](1,2,4)-triazolo-(4,3-a][1,4]diazepin-4-yl)acetamido)benzamide by checkerboard microdilution method; format: functional
[21] = tested on: Candida albicans; assay: Downregulation of ERG11 expression in Candida albicans 0304103 at 32 ug/mL incubated for 24 hrs by RT q-PCR analysis; format: functional; details: dose 32.0 µg/ml
[22] = tested on: Candida albicans; assay: Synergetic antifungal activity against Candida albicans 0304103 assessed as microbial growth inhibition incubated for 24 hrs in the presence of (S)-4-(2-(6-(4-Chlorophenyl)-1-methyl-4H-benzo[f](1,2,4)-triazolo(4,3-a)(1,4)diazepin-4-yl)acetamido)-N-hydroxybenzamide by checkerboard microdilution method; format: functional
[23] = tested on: Nakaseomyces glabratus; assay: Synergetic antifungal activity against Candida glabrata 4408 assessed as microbial growth inhibition incubated for 24 hrs in the presence of (S)-4-((2-(6-(4-Chlorophenyl)-1-methyl-7,8,9,10-tetrahydro-4H-benzo-(4,5)thieno[3,2-f][1,2,4]triazolo(4,3-a)(1,4)diazepin-4-yl)-acetamido)-methyl)-N-hydroxybenzamide by checkerboard microdilution method; format: functional
[24] = tested on: Candida albicans; assay: Downregulation of CDR2 expression in Candida albicans 0304103 at 32 ug/mL incubated for 24 hrs by RT q-PCR analysis; format: functional; details: dose 32.0 µg/ml
[25] = tested on: Candida albicans; assay: Synergetic antifungal activity against Candida albicans 9884 assessed as microbial growth inhibition incubated for 24 hrs in the presence of (S)-4-((2-(6-(4-Chlorophenyl)-1-methyl-7,8,9,10-tetrahydro-4H-benzo-(4,5)thieno[3,2-f][1,2,4]triazolo(4,3-a)(1,4)diazepin-4-yl)-acetamido)-methyl)-N-hydroxybenzamide by checkerboard microdilution method; format: functional
[26] = tested on: [Candida] auris; assay: Antifungal activity against Candida auris 0029 assessed as microbial growth inhibition; format: functional; details: Candidozyma auris
[27] = tested on: Cryptococcus neoformans; assay: Antifungal activity against Cryptococcus neoformans H99 assessed as fungal growth inhibition incubated for 24 hrs by broth dilution method; format: functional
[28] = tested on: Candida albicans; assay: Synergetic antifungal activity against Candida albicans 0304103 assessed as microbial growth inhibition incubated for 24 hrs in the presence of (S)-4-((2-(6-(4-Chlorophenyl)-1-methyl-7,8,9,10-tetrahydro-4H-benzo-(4,5)thieno[3,2-f][1,2,4]triazolo(4,3-a)(1,4)diazepin-4-yl)-acetamido)-methyl)-N-hydroxybenzamide by checkerboard microdilution method; format: functional

OC(Cn1cncn1)(Cn1cncn1)c1ccc(F)cc1F [FLUCONAZOLE]
Activity [1]: inactive | MIC80 [2]: 8 µg/mL (≈ 26.1 µM) | MIC80 [3]: 64 µg/mL | MIC80 [4]: 2 µg/mL | Activity [5]: Active | Activity [6]: inactive | MIC80 [7]: 1 µg/mL | MIC80 [8]: 0.5 µg/mL | MIC80 [9]: 64 µg/mL (≈ 209 µM) | Activity [10]: inactive | MIC80 [11]: > 64 µg/mL | MIC80 [12]: 2 µg/mL | MIC80 [13]: 2 µg/mL (≈ 6.53 µM) | MIC80 [14]: > 64 µg/mL | MIC80 [15]: 2 µg/mL | MIC80 [16]: 1 µg/mL | MIC80 [17]: 4 µg/mL | MIC80 [18]: 1 µg/mL | MIC80 [19]: 16 µg/mL | MIC80 [20]: 1 µg/mL | Activity [21]: inactive | MIC80 [22]: 4 µg/mL | MIC80 [23]: 2 µg/mL | Activity [24]: inactive | MIC80 [25]: 0.25 µg/mL | MIC80 [26]: > 64 µg/mL | MIC80 [27]: 1 µg/mL (≈ 3.27 µM) | MIC80 [28]: 2 µg/mL
